Laboratory results: patent publication US4806660A, “Aurone oxypropanolamines” (Pennwalt Corporation, priority 1988, dated 1989)
Counter-ions that a name gives are not always drawn.

Tested on: LTC4-induced contraction of guinea pig ileum
Experiment: Test for Inhibition of LTC4-Induced Guinea Pig Ilial Contractions
Conditions: Cavia porcellus, LTC4 6 nanomolar, isolated guinea pig ilial strips, four replicate tissues, read-out: Percent Inhibition of Contraction at the given Concentration of Test Compound; for inhibition at 1 µM: 1 μMolar; for inhibition at 5 µM: 5 μMolar; for inhibition at 10 µM: 10 μMolar; for inhibition at 50 µM: 50 μMolar
Protocol: Test for Inhibition of LTC4 -Induced Guinea Pig Ilial Contractions The evaluation of potential anti-allergic compounds for antagonism of the in vitro effects of LTC4 is conducted according to the following procedure. Guinea pig ilial strips are obtained from recently killed animals and hung in isolated tissue baths comprising a balanced solution of salts such as Krebs' solution. After allowing for one hour equilibration of the tissue in the bath, the gram tension (G.T.) on one tissue is arbitrarily set at one. LTC4 (6 nanomolar concentration) is then added to the tissue bath. This induces a long, sustained contraction of the tissue that is measured on the strip chart recorder (the G.T. increases to about 2). After the LTC4 -induced contraction has plateaued and remains stable, increasing amounts of the test compound are added to the bath. If the compound is effective, a decrease in the G.T. (ΔG.T.) from the LTC4 -induced value is seen (e.g., from 2 to 1.5). The percent inhibition at each concentration is calculated according to the formula: [formula] Four replicate tissues are run.

Row | SMILES | inhibition at 1 µM | inhibition at 5 µM | inhibition at 10 µM | inhibition at 50 µM
1 | CCCNCC(O)COc1ccc2c(c1)O/C(=C\c1ccccc1)C2=O (stereo not drawn) [Example 1, 6-[2-Hydroxy-3-(propylamino)propoxy]aurone Hydrochloride] | 16% | 44% | 66% | 135%
2 | CC(C)NCC(O)COc1ccc2c(c1)O/C(=C\c1ccccc1)C2=O (stereo not drawn) [Example 2, 6-[2-Hydroxy-3-(isopropylamino)propoxy]aurone Hydrochloride] | 23% | 48% | 62% | 154%
3 | O=C1/C(=C/c2ccccc2)Oc2cc(OCC(O)CNC3CC3)ccc21 (stereo not drawn) [Example 3, 6-[3-(Cyclopropylamino)-2-hydroxypropoxy]aurone Hydrochloride] | 25% | 48% | 65% | 144%
